Data set [1] deals with primary rat hepatocytes. Briefly: Hepatocyte morphology / cell spreading (scanning electron micrographs). Format: cell-based. Particulars: 24 hours. An excerpt:
PKA inhibition also had surprising effects on cell morphology. It has been proposed that malleable substrates such as collagen gel are unable to promote cell spreading because it lacks sufficient mechanical strength to resist contractile forces applied by the cell to its adhesion sites.

The test system of data set [2] is primary rat hepatocytes. Briefly: DNA synthesis, [3H]thymidine incorporation in hepatocytes on collagen film or gel. Format: cell-based. How it is done:
(§1) FIG. 2. Effects of PKA inhibition on morphology and cell cycle progression on collagen gel. (A) PKA activity was assessed in hepatocytes cultured on gel or film. In vitro kinase assay was performed; DPM=total ^32P-incorporation, minus counts from sample without substrate. […] [^3H]Thymidine incorporation was assessed from 48-96 hr. (C) Phosphorylation of p42/44 ERKs was determined in hepatocytes cultured on collagen gel for 50 hr by Western blot using a phospho-specific p42/44 antibody (NEB). […] EGF receptor (EGFr) was immunoprecipitated, followed by Western blot analysis of phospho-tyrosine (P-Tyr) or total EGFr.
Once it was confirmed that PKA activity was higher in cells cultured on gel, PKA activity was modified to assess its role in cell cycle progression.
DNA Synthesis: DNA synthesis will be measured using [^3H]-thymidine incorporation in substrate-coated 96-well plates, as previously described (Hansen 1999). DPMs will be normalized to cell number assessed in parallel plates using the CyQuant Assay (Molecular Probes).
Hepatocyte Culture: Cells are obtained by collagenase perfusion of adult Lewis rat liver (Aiken 1990), followed by purification through a Percoll gradient (Sigma, St. Louis, Mo.). Hepatocytes will be plated (12,000 cells/cm^2) in serum-free William's medium E with defined additives including EGF (10 ng/ml, Collaborative Research, Bedford, Mass.) and insulin (20 mU/ml, Sigma) (Hansen 1994).
For orientation: Incorporation of labelled thymidine or its analogues reports DNA synthesis.

Another data set has as its system p42/44 ERKs. Briefly: Phosphorylation of p42/44 ERKs by Western blot. Type of data set: cell-based, rat. Particulars: hepatocytes on collagen gel for 50 hr, with H89. The protocol: as §1
To determine if ERK activation occurs on both collagen substrates (film and gel), phosphorylation of ERKs was measured using Western blot analysis and antibodies against the phosphorylated form of ERK 1/2 (New England Biolabs). […] Once plated onto collagen film, ERK phosphorylation persisted and increased slightly over the first 2 hours in culture, then gradually diminished out to 24 hours. A second peak of phosphorylation was observed by 48 hours, just prior to entry into S phase. Both peaks of phosphorylation correlated with increased ERK kinase activity as determined by in vitro kinase assays. In contrast, the initial phosphorylation subsides more rapidly in cells on collagen gel and the second peak of ERK phosphorylation was absent. […]
On the technique in general: Immunoblotting shows a protein as a band on a membrane.

Data set [3] has as its system primary rat hepatocytes. Briefly: Cell counting 96 hr after plating on collagen gel (hemocytometer). Type of data set: cell-based. The following applies: H89 3 μM. The protocol:
(§2) FIG. 4. Effects of PKA inhibition on hepatocyte proliferation and differentiation. […] Medium was replaced at 96 hr and collected for analysis at 120 hr. Albumin secretion was determined by ELISA.
While growth on collagen films was also high, hepatocytes quickly become de-differentiated on collagen films.
Proliferation: Hepatocytes cultured on 35 mm dishes will be removed from plates using a combination of trypsin, collagenase, and DNAse at various times after plating. Cells are counted using a Coulter counter and hemocytometer. A cell count at 24 hour is also determined to assess the initial number of viable, attached cells. Plates are run in triplicate.

For data set [4], the system named is primary rat hepatocytes. Briefly: Albumin secretion by ELISA (differentiated function). The following applies: collagen gel; text: after 48 hours in culture; H89 3 μM. Type of data set: cell-based. The protocol:
FIG. 4. Effects of PKA inhibition on hepatocyte proliferation and differentiation. […] Albumin secretion was determined by ELISA.
(§3) Albumin is a protein synthesized and secreted by hepatocytes and this assay is routinely used as a marker of differentiated function. […] Urea production is also maintained on collagen gel in the presence of PKA inhibition (FIG. 4C).

In data set [5] the test system is primary rat hepatocytes. Briefly: Urea production in hepatocytes on collagen gel. Type of data set: cell-based. Particulars: with PKA inhibition (FIG. 4C: with or without H89). How it is done: as §2, §3
Data set [6] relates to hepatocytes. Briefly: Cell counts after pulsed PKA inhibition, Example 6 (hemocytometer, Coulter counter). Format: cell-based, rat. The protocol:
Coating: 60 mm plates were coated with film or 5× gel, as described above, with 4 replicates per condition. […] Culture: The cells were cultured as described above, changing media in all plates at 72 hrs, and again at 96 hrs (day 4). […] Harvest: Gel—media was removed from plates. Five mL collagenase (approx. 1 mg/ml) in PBS was added to plates and incubated for 20 minutes at 37° C. Three mL trypsin-EDTA was added directly to collagenase solution and incubated another 15 minutes at 37° C. Media was removed with a pipette and plate was washed several times with the media, before the media was collected into a 15 mL tube. Tubes were centrifuged at 1000 rpm for 10 minutes at 4° C. Supernatant was removed and pellets from each of the four replicates were resuspended in 1 mL fresh media. Tube was weighed for end volume and equalized to 1 ml later. Film—Media was removed from plates. Trypsin-EDTA was added to dishes (3 ml/dish) and dishes were incubated at 37° C. for 15 minutes. Procedure was repeated. Samples were snap frozen in ethanol at −70° C. before thawing and counting. Counting: Hemocytometer—100 μL sample was added to 900 μL trypan blue in PBS […]. Cells were counted. Repeated procedure seven times for eight total counts per sample. Coulter Counter—Added 250 μL sample to 20 mL PBS in small Coulter vessel. Counted with predetermined pre-sets, collecting 1 mL of 20 mL sample and recording result. Repeated procedure seven times for eight total counts per sample. It should be noted that the inventors also determined that a pulse of PKA inhibitor is preferable to a constant exposure to PKA. If the PKA inhibitor is left on for the entire culture period, there is no enhanced cell number, presumably due to the requirement of PKA in later stages of the cell cycle. Thus, the methodology differs slightly from our initial report in which we simply stated the inhibitor is added to the culture. In the present experiments, the inventors exposed the cells to the inhibitor on for the first 72 hours, removed it for the next 24 hours, and then added it back again.

Data set [7] has as its system hepatocytes. Briefly: Dot blot of albumin secretion, 72 hour media samples. Type of data set: cell-based, rat. How it is done: FIG. 6. Dot blot of albumin secretion—72 hour media samples.
The observed enhanced cell number was accompanied by NO change in albumin secretion, which is a standard measure of differentiated function. […] It also compares it to a thin film of type I collagen on which hepatocytes may proliferate but also lose differentiated function. Inhibition of PKA has little effect on DNA synthesis, cell counts, or albumin secretion in hepatocytes cultured on film.

In data set [8] the test system is protein kinase inhibitory peptide, PKI.

Turning to `Nc1ncnc2c1nc(Br)n2[C@@H]1O[C@@H]2COP(=O)(O)O[C@H]2[C@H]1O` [8-Br-cAMP], the “cell spreading on collagen film” value with primary rat hepatocytes [1] (collagen film) was “significantly inhibits cell spreading”.

For `O=S(=O)(NCCNC/C=C/c1ccc(Br)cc1)c1cccc2cnccc12` [H89, N-[2-((p-bromocinnamyl)amino)ethyl]-5-isoquinolinesulfonamide], the “DNA synthesis on collagen gel” value in the data set on primary rat hepatocytes [2] (H89 2 μM vs DMSO, collagen gel, [3H]thymidine incorporation 48-96 hr) is listed as “significantly increased”. Besides, in the data set with primary rat hepatocytes [2] (H89 2 μM vs DMSO, film-plated cells, 48-96 hr), the “DNA synthesis on collagen film” value is given as “little effect”. Also, the “DNA synthesis in hepatocytes cultured on film” value with primary rat hepatocytes [2] (collagen film, Example 6 discussion) is on record as “little effect”. Moreover, the ERK phosphorylation result in the data set with p42/44 ERKs is given as “significantly enhanced”. Besides, the “cell spreading on collagen gel” value in the data set on primary rat hepatocytes [1] (collagen gel) is on record as “significant spreading”. Moreover, in the data set with primary rat hepatocytes [3], the “increase in cell number compared to DMSO controls” value was 67%. Besides, the “albumin secretion compared to DMSO controls” value in the data set with primary rat hepatocytes [4] is recorded as “not reduced”. For the same molecule, the urea production result with primary rat hepatocytes [5] is listed as “maintained”. In addition, the “cell counts in hepatocytes cultured on film” value with hepatocytes [6] (collagen film) is on record as “little effect”. The “higher cell number with PKA inhibition” value in the data set on hepatocytes [6] (type I collagen gel, eight days in culture, 3.3 μM H89 pulsed) was 15-20%. Moreover, the “average increase in cell number, five experiments” value with hepatocytes [6] (type I collagen gel, eight days, 3.3 μM H89 pulsed, p-value=0.0004) is reported as 16%±3.3%. The “cell number at four days” value in the data set with hepatocytes [6] (type I collagen gel, representative experiment (FIG. 5A)) is “no change in cell number”. Besides, the “albumin secretion in hepatocytes cultured on film” value with hepatocytes [7] (collagen film) is “little effect”. Besides, in the data set with hepatocytes [7] (collagen gel cultures with or without H89, 72 hours), the “albumin secretion (dot blot, not quantitated)” value is “NO change”.

As for `N#CC(=C(/N)Sc1ccccc1N)/C(C#N)=C(\N)Sc1ccccc1N` [U0126], the “DNA synthesis, MEK1 inhibition during early G1” value with primary rat hepatocytes [2] (inhibitor applied during early G1) was “does not”. The “DNA synthesis, MEK1 inhibition during late G1” value in the data set with primary rat hepatocytes [2] (inhibitor applied during late G1) is listed as “inhibits DNA synthesis”.

protein kinase A (PKA): the “[^32P] incorporation in the in vitro PKA kinase assay” value in [8] is “the protein kinase inhibitory peptide, PKI, specifically inhibits [^32P] incorporation”.

The record behind these values is patent publication US20050148073A1, “Induction of hepatocyte proliferation in vitro by inhibition of cell cycle inhibitors” (priority 2002, published 2005).
